Test results: US9896445B2, “Heterocyclic inhibitors of ERK1 and ERK2 and their use in the treatment of cancer” (Asana Biosciences, LLC, priority 2015, dated 2018)

How the values were obtained:
ERK2 = molecular target: T1, ERK2 (Homo sapiens, UniProt P28482); experiment: ERK2 HTRF (biochemical) assay; details: HTRF
T1 construct: purchased Jubilant Biosys
Outline: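 Readout was time-resolved FRET between europium anti-phospho-MBP and streptavidin-APC after a 60-min room-temperature kinase step. That step used ERK2 (25 nM in enzyme mix), biotinylated MBP peptide (1 uM) and ATP (24 uM) from the substrate mix, in pH 7.5 Tris buffer.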

ERK1 = molecular target: T2, ERK1 (Homo sapiens, UniProt P27361); experiment: ERK1 HTRF (biochemical) assay; details: HTRF
T2 construct: purchased Jubilant Biosys
Description: ERK1 and ERK2 HTRF (Biochemical) Assays
These assays employed a homogeneous time resolved fluorescence (HTRF) technique. […] The plate was incubated at room temperature for 60 min with shaking. […] The IC50 values (half maximal inhibitory concentration values) were subsequently determined using a sigmoidal dose-response curve (variable slope) in GraphPad Prism® 5 software.

T2 sequence (P27361 whole entry): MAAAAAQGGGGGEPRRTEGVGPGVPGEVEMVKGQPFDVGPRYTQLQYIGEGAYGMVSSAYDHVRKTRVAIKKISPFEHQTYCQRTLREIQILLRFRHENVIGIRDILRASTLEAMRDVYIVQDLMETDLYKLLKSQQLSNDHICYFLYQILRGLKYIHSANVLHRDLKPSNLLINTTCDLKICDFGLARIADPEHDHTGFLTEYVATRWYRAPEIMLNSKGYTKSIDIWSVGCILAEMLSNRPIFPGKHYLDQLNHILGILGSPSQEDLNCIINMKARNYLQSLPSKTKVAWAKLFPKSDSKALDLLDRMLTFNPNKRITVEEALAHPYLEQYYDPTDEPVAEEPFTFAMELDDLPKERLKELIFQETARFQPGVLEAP
T1 sequence (P28482 whole entry): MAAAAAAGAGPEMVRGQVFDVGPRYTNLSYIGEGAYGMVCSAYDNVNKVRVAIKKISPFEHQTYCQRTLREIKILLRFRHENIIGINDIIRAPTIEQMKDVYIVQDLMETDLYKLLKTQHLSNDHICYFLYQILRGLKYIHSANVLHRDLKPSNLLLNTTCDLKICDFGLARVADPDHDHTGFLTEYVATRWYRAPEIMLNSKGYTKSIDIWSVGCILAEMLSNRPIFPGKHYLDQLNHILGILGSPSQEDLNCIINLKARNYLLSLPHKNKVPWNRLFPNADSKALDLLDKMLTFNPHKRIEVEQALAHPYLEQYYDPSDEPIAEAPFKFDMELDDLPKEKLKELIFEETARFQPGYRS

Row | SMILES | IC50 (ERK2) | IC50 (ERK1)
1 | Cc1cnc(Nc2ccc(C3CCNCC3)c(F)c2)nc1-n1ccc(C(=O)NC(CO)c2cccc(Cl)c2)c1 (stereo not drawn) [Compound 216, N-(1-(3-chlorophenyl)-2-hydroxyethyl)-1-(2-((3-fluoro-4-(piperidin-4-yl)phenyl)amino)-5-methylpyrimidin-4-yl)-1H-pyrrole-3-carboxamide] | ≤ 0.05 µM | < 0.05 µM
2 | Cc1cnc(NC2CCOCC2)nc1-n1cnc(C(=O)N[C@@H](CO)c2cccc(Cl)c2)c1 [Compound 217, (R)-N-(1-(3-chlorophenyl)-2-hydroxyethyl)-1-(5-methyl-2-((tetrahydro-2H-pyran-4-yl)amino)-pyrimidin-4-yl)-1H-imidazole-4-carboxamide] | 0.1 to 0.5 µM | 0.1 to 0.5 µM
3 | CC[C@@H](CO)Nc1ncc(C)c(-n2ccc(C(=O)N[C@@H](CO)c3cccc(Cl)c3)c2)n1 [Compound 218, N-((R)-1-(3-chlorophenyl)-2-hydroxyethyl)-1-(2-(((S)-1-hydroxy-butan-2-yl)amino)-5-methylpyrimidin-4-yl)-1H-pyrrole-3-carboxamide] | 0.5 to 2.5 µM | 0.1 to 0.5 µM
4 | CC[C@@H](CO)Nc1ncc(C)c(-n2ccc(C(=O)N[C@H](CO)c3cccc(Cl)c3)c2)n1 [Compound 219, N-((S)-1-(3-chlorophenyl)-2-hydroxyethyl)-1-(2-(((S)-1-hydroxy-butan-2-yl)amino)-5-methylpyrimidin-4-yl)-1H-pyrrole-3-carboxamide] | ≤ 0.05 µM | < 0.05 µM
5 | CC[C@@H](CO)Nc1ncc(C)c(-n2cnc(C(=O)N[C@H](CO)c3cccc(Cl)c3)c2)n1 [Compound 220, N-((S)-1-(3-chlorophenyl)-2-hydroxyethyl)-1-(2-(((S)-1-hydroxy-butan-2-yl)amino)-5-methylpyrimidin-4-yl)-1H-imidazole-4-carboxamide] | ≤ 0.05 µM | < 0.05 µM
6 | NCC(NC(=O)c1cn(-c2ccnc(Nc3ccc(F)cc3)c2)cn1)c1ccccc1 (stereo not drawn) [Compound 221, N-(2-amino-1-phenylethyl)-1-(2-((4-fluorophenyl)-amino)pyridin-4-yl)-1H-imidazole-4-carboxamide] | ≤ 0.05 µM | < 0.05 µM
7 | Cc1cnc(Nc2ccc(F)cc2)cc1-n1cnc(C(=O)NC(CO)c2ccccc2)c1 (stereo not drawn) [Compound 222, 1-(2-((4-fluorophenyl)amino)-5-methylpyridin-4-yl)-N-(2-hydroxy-1-phenylethyl)-1H-imidazole-4-carboxamide] | 0.05 to 0.1 µM | 0.1 to 0.5 µM
8 | Cc1cnc(Nc2ccc(F)c(N3CCOCC3)c2)nc1-n1cnc(C(=O)NC(CO)c2cccc(Cl)c2)c1 (stereo not drawn) [Compound 223, N-(1-(3-chlorophenyl)-2-hydroxyethyl)-1-(2-((4-fluoro-3-morpholinophenyl)amino)-5-methyl-pyrimidin-4-yl)-1H-imidazole-4-carboxamide] | ≤ 0.05 µM | < 0.05 µM
9 | Cc1cnc(NC2CCCCC2)nc1-n1cnc(C(=O)NC(CO)c2cccc(Cl)c2)c1 (stereo not drawn) [Compound 226, N-(1-(3-chloro-phenyl)-2-hydroxy-ethyl)-1-(2-(cyclohexylamino)-5-methylpyrimidin-4-yl)-1H-imidazole-4-carboxamide] | ≤ 0.05 µM | < 0.05 µM
10 | O=C(N[C@H](CO)c1cccc(Cl)c1)c1ccn(-c2nc(NC3CCOCC3)ncc2F)c1 [Compound 229, (S)-N-(1-(3-chlorophenyl)-2-hydroxyethyl)-1-(5-fluoro-2-((tetrahydro-2H-pyran-4-yl)amino)-pyrimidin-4-yl)-1H-pyrrole-3-carboxamide] | ≤ 0.05 µM | < 0.05 µM
11 | Cc1cnc(Nc2ccc(F)cc2)cc1-n1cnc(C(=O)NC(CN)c2ccc(F)cc2)c1 (stereo not drawn) [Compound 230, N-(2-amino-1-(4-fluorophenyl)ethyl)-1-(2-((4-fluoro-phenyl)amino)-5-methylpyridin-4-yl)-1H-imidazole-4-carboxamide] | ≤ 0.05 µM | < 0.05 µM
12 | Cc1cnc(Nc2ccc(Oc3ccccc3)cc2)nc1-n1cnc(C(=O)NC(CN)c2cccc(Cl)c2)c1 (stereo not drawn) [Compound 231, N-(2-amino-1-(3-chlorophenyl)ethyl)-1-(5-methyl-2-((4-phenoxyphenyl)amino)pyrimidin-4-yl)-1H-imidazole-4-carboxamide] | ≤ 0.05 µM | < 0.05 µM
13 | Cc1cnc(Nc2ccc(F)cc2Cl)nc1-n1cnc(C(=O)NC(CN)c2cccc(Cl)c2)c1 (stereo not drawn) [Compound 232, N-(2-amino-1-(3-chlorophenyl)ethyl)-1-(2-((2-chloro-4-fluorophenyl)amino)-5-methyl-pyrimidin-4-yl)-1H-imidazole-4-carboxamide] | ≤ 0.05 µM | < 0.05 µM
14 | Cc1cnc(NC2CCOCC2)nc1-n1cnc(C(=O)NC(CO)c2cccs2)c1 (stereo not drawn) [Compound 233, N-(2-hydroxy-1-(thiophen-2-yl)ethyl)-1-(5-methyl-2-((tetrahydro-2H-pyran-4-yl)amino)-pyrimidin-4-yl)-1H-imidazole-4-carboxamide] | ≤ 0.05 µM | < 0.05 µM
15 | Cc1cnc(NC2CCOCC2)nc1-n1cnc(C(=O)NC(CO)c2ccsc2)c1 (stereo not drawn) [Compound 234, N-(2-hydroxy-1-(thiophen-3-yl)ethyl)-1-(5-methyl-2-((tetrahydro-2H-pyran-4-yl)amino)-pyrimidin-4-yl)-1H-imidazole-4-carboxamide] | ≤ 0.05 µM | < 0.05 µM
16 | Cc1cnc(NC2CCOC2)nc1-n1cnc(C(=O)NC(CN)c2cccc(Cl)c2)c1 (stereo not drawn) [Compound 235, N-(2-amino-1-(3-chlorophenyl)ethyl)-1-(5-methyl-2-((tetrahydrofuran-3-yl)amino)pyrimidin-4-yl)-1H-imidazole-4-carboxamide] | ≤ 0.05 µM | < 0.05 µM
17 | Cc1cnc(NC2CCOCC2)nc1-n1cnc(C(=O)NC(CO)c2cccc(C(F)(F)F)c2)c1 (stereo not drawn) [Compound 237, N-(2-hydroxy-1-(3-(trifluoromethyl)-phenyl)ethyl)-1-(5-methyl-2-((tetrahydro-2H-pyran-4-yl)amino)-pyrimidin-4-yl)-1H-imidazole-4-carboxamide] | ≤ 0.05 µM | < 0.05 µM
18 | Cc1cccc(C(CO)NC(=O)c2cn(-c3nc(NC4CCOCC4)ncc3C)cn2)c1 (stereo not drawn) [Compound 238, N-(2-hydroxy-1-(m-tolyl)ethyl)-1-(5-methyl-2-((tetrahydro-2H-pyran-4-yl)amino)pyrimidin-4-yl)-1H-imidazole-4-carboxamide] | ≤ 0.05 µM | < 0.05 µM
19 | Cc1cnc(NC2CCC(F)(F)CC2)nc1-n1cnc(C(=O)N[C@H](CO)c2cccc(Cl)c2)c1 [Compound 240, (S)-N-(1-(3-chlorophenyl)-2-hydroxyethyl)-1-(2-((4,4-difluorocyclo-hexyl)amino)-5-methylpyrimidin-4-yl)-1H-imidazole-4-carboxamide] | ≤ 0.05 µM | < 0.05 µM
20 | Cc1cnc(Nc2ccc(F)cc2Cl)nc1-n1cnc(C(=O)N[C@H](CO)c2cccc(Cl)c2)c1 [Compound 241, (S)-1-(2-((2-chloro-4-fluorophenyl)-amino)-5-methyl-pyrimidin-4-yl)-N-(1-(3-chlorophenyl)-2-hydroxyethyl)-1H-imidazole-4-carboxamide] | ≤ 0.05 µM | < 0.05 µM
21 | Cc1cnc(N[C@H]2CC[C@H](O)CC2)nc1-n1cnc(C(=O)N[C@H](CO)c2cccc(Cl)c2)c1 [Compound 242, N-((S)-1-(3-chlorophenyl)-2-hydroxyethyl)-1-(2-(((1r,4S)-4-hydroxycyclohexyl)amino)-5-methyl-pyrimidin-4-yl)-1H-imidazole-4-carboxamide] | ≤ 0.05 µM | < 0.05 µM
22 | Cc1cnc(NC2CCOCC2)nc1-n1cnc(C(=O)NCc2ccccc2CCO)c1 [Compound 243, N-(2-(2-hydroxy-ethyl)benzyl)-1-(5-methyl-2-((tetrahydro-2H-pyran-4-yl)amino)pyrimidin-4-yl)-1H-imidazole-4-carboxamide] | ≤ 0.05 µM | < 0.05 µM
23 | Cc1cnc(NC2CCS(=O)(=O)C2)nc1-n1cnc(C(=O)N[C@H](CO)c2cccc(Cl)c2)c1 (stereo partly drawn) [Compound 246, N-((S)-1-(3-chlorophenyl)-2-hydroxyethyl)-1-(2-((1,1-dioxido-tetrahydrothiophen-3-yl)amino)-5-methylpyrimidin-4-yl)-1H-imidazole-4-carboxamide] | ≤ 0.05 µM | < 0.05 µM
24 | Cc1cnc(NC2CCOc3ccccc32)nc1-n1cnc(C(=O)N[C@H](CO)c2cccc(Cl)c2)c1 (stereo partly drawn) [Compound 247, N-((S)-1-(3-chlorophenyl)-2-hydroxyethyl)-1-(2-(chroman-4-ylamino)-5-methylpyrimidin-4-yl)-1H-imidazole-4-carboxamide] | ≤ 0.05 µM | < 0.05 µM
25 | Cc1cnc(Nc2ccc(F)cc2)nc1-n1cnc(C(=O)N[C@H](CN)c2cccc(Cl)c2)c1 [Compound 248, (S)-N-(2-amino-1-(3-chlorophenyl)-ethyl)-1-(2-((4-fluorophenyl)amino)-5-methyl-pyrimidin-4-yl)-1H-imidazole-4-carboxamide] | ≤ 0.05 µM | < 0.05 µM
26 | Cc1cnc(Nc2ccc(F)cc2)nc1-n1cnc(C(=O)N[C@@H](CN)c2cccc(Cl)c2)c1 [Compound 249, (R)-N-(2-amino-1-(3-chlorophenyl)-ethyl)-1-(2-((4-fluorophenyl)-amino)-5-methyl-pyrimidin-4-yl)-1H-imidazole-4-carboxamide] | 0.1 to 0.5 µM | 0.5 to 2.5 µM
27 | Cc1cnc(NC2CCOC(C)C2)nc1-n1cnc(C(=O)N[C@H](CO)c2cccc(Cl)c2)c1 (stereo partly drawn) [Compound 251, N-((S)-1-(3-chlorophenyl)-2-hydroxyethyl)-1-(5-methyl-2-((2-methyltetrahydro-2H-pyran-4-yl)amino)pyrimidin-4-yl)-1H-imidazole-4-carboxamide] | ≤ 0.05 µM | < 0.05 µM
